≈ marks a conversion by molar mass, not a printed value.

The values below come from ChEMBL document CHEMBL3044797 (Crop Prot, 2008).

Test [1] has as its system Fusarium graminearum. Description: Fungicidal activity against carbendazim-resistant Fusarium graminearum isolate. In kind it is functional, organism-based.
Test [2] deals with Fusarium graminearum. The test can be described thus: Fungicidal activity against compound-resistant Fusarium graminearum isolate. Format: functional, organism-based.

What is called EC50 is the concentration that produces a half-maximal response. Low readings indicate an effect from little substance, high ones a need for much substance. `CCOC(=O)/C(C#N)=C(/N)c1ccccc1`: the results for the EC50 in the test on Fusarium graminearum [1] and in the test with Fusarium graminearum [2] were 0.115 µg/mL (≈ 0.532 µM) and 0.14 µg/mL (≈ 0.647 µM), respectively.
